In general, EC50 refers to the concentration giving half of the maximal effect.

The values below come from patent publication US9593155B2, “Oxyntomodulin analogs” (priority 2009, dated 2017).

The target in series [1] is T1, hGCGR (Homo sapiens, UniProt P47871). Description: cell-based cAMP assay as described in WO2008101017 (Table 11), hGCGR. From the text: (§1) This example presents tables showing the in vitro potencies of various peptide analogs at the human GLP-1 receptor (hGLP-1R) and the human glucagon receptor (hGCGR).
On the technique in general: Cyclic AMP is a second messenger, typically raised through Gs and lowered through Gi signalling.

Series [2] concerns human mast cell line LAD2. Description: mast cell degranulation counterscreen, beta-hexosaminidase release. Particulars: LAD2 cells, 30 minutes; read-out: Degranulation potency EC50. The class given is cell-based. Here is the method:
LAD2 cells (50,000 cells/well, 96-well plate) were incubated with compounds for 30 minutes. The degranulation of LAD2 cells was determined by quantification of the β-hexosaminidase released into the supernatants and in cell lysates after hydrolysis of 4-methylumbelliferyl-N-acetyl-β-D-glucosaminide. Results are expressed as percentage of β-hexosaminidase release, calculated as percent of total content.
Background: Counterscreens check selectivity or assay interference.

Series [3] is described as follows: pI of the peptide analogs. The note with it: Table 10.
Series [4] addresses T1, hGCGR. Description: fluorescence cell based cAMP assay, CHO cells stably expressing GCGR. Particulars: hGCGR + 20% plasma EC50, Table 10, 20% plasma. Here is the method:
We initially screened peptides in fluorescence cell based assays that measure production of cyclic-AMP (cAMP), using CHO cell lines stably expressing either recombinant human GLP-1R or human GCGR. Determination of Mouse and human GLP-1R and GCGR Agonist Activity was essentially as follows. CHO cells stably expressing mouse or human GLP-1R or GCGR were grown in Iscove's Modified Dulbecco's Medium (IMDM), 10% FBS, 1 mM L-glutamine, penicillin-streptomycin (100 μ/mL) and 750 μg G418/mL for three-four days before harvesting using Enzymefree Dissociation Media (EFDM, Specialty Media). […] The assay was terminated with the addition of the LANCE kit Detection buffer as per the manufacturer's instructions. The plates were held an additional hour at room temperature, then increasing cAMP levels were detected by a decrease in TR-FRET signal as measured in an EnVision counter (PerkinElmer) in comparison to a standard curve of cAMP as per the manufacturer's instructions. Data were analyzed using the linear and nonlinear regression analysis software, GraphPad Prism.
The in vitro potencies shown in Table 10 or Table 11 were determined from the results of assays that were similar to either the cell-based cAMP assays described herein above (Table 10) or the cell-based cAMP assays described in International Published Application No. WO2008101017, which is incorporated herein in its entirety, in particular the cell-based cAMP assays described therein (Table 11).

The target of the next series is hGLP-1R (Homo sapiens, UniProt P43220). Description: cell-based cAMP assay as described in WO2008101017 (Table 11), hGLP-1R.
From the text: as §1

*1 amine or outer side, *2 acyl side, *3 side chain or, on linkers, in order; H or OH if unused. Where a SMILES comes first, the peptide text is derived from it. Side-chain parts run from the residue outwards. [ ]: non-standard residue; d: D form. The star is where a group is joined. X3 = CC(C)CCC[C@@H](C)[C@H]1CC[C@H]2[C@@H]3CC=C4C[C@@H](OC(=O)CCOCCOCCOCCOCCNC(=O)C*)CC[C@]4(C)[C@H]3CC[C@]12C; γGlu = O=C(O)[C@H](CCC(=O)[*:2])N[*:1]; Palmitoyl = CCCCCCCCCCCCCCCC(=O)*

T1 sequence (P47871 26-477): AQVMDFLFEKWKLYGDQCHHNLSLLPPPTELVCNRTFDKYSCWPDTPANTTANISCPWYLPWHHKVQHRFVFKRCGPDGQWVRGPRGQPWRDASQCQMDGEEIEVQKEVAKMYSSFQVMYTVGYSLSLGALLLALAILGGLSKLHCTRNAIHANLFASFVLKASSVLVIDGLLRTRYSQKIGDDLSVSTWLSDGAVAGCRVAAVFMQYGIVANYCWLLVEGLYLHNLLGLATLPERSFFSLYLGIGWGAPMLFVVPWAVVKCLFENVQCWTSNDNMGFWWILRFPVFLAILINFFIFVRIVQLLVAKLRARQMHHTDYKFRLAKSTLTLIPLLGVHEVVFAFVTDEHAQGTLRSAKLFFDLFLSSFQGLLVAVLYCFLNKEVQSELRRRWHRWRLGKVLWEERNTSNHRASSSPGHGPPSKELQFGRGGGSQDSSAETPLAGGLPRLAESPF
hGLP-1R, sequence (P43220 24-463): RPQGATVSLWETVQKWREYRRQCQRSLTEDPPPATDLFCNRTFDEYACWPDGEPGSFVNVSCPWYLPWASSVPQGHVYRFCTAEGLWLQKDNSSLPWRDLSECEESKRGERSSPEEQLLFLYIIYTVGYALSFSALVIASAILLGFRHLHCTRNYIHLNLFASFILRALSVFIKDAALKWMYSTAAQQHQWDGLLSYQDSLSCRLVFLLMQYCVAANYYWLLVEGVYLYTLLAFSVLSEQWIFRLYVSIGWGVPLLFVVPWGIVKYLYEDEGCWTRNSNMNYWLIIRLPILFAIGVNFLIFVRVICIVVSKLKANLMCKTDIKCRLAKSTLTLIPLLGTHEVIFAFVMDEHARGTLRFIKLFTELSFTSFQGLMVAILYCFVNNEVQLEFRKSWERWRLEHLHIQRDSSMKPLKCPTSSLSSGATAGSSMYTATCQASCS

For `CCCCCCCCCCCCCC(=O)N[C@@H](CCC(=O)N[C@@H](CCC(=O)NCCCC[C@H](NC(=O)[C@H](CC(=O)O)NC(=O)[C@H](CO)NC(=O)[C@@H](NC(=O)[C@H](Cc1ccccc1)NC(=O)[C@@H](NC(=O)CNC(=O)[C@H](CCC(N)=O)NC(=O)[C@@H](CO)NC(=O)[C@@H](N)Cc1c[nH]cn1)[C@@H](C)O)[C@@H](C)O)C(=O)N[C@@H](CO)C(=O)N[C@@H](CCCCN)C(=O)N[C@@H](Cc1ccc(O)cc1)C(=O)N[C@@H](CC(C)C)C(=O)N[C@@H](CC(=O)O)C(=O)NC(C)(C)C(=O)N[C@@H](CCCNC(=N)N)C(=O)N[C@@H](CCCNC(=N)N)C(=O)N[C@@H](C)C(=O)N[C@@H](CCC(N)=O)C(=O)N[C@@H](CC(=O)O)C(=O)N[C@@H](Cc1ccccc1)C(=O)N[C@H](C(=O)N[C@@H](CCC(N)=O)C(=O)N[C@@H](Cc1c[nH]c2ccccc12)C(=O)N[C@@H](CC(C)C)C(=O)N[C@@H](CCSC)C(=O)N[C@@H](CC(N)=O)C(=O)N[C@H](C(=O)N[C@@H](CCCCN)C(=O)N[C@@H](CCC(N)=O)C(=O)O)[C@@H](C)O)C(C)C)C(=O)O)C(=O)O` [MM121], the EC50 at hGCGR [1] is 0.006 nM.
Consider `CCCCCCCCCCCCCCCCCC(=O)N[C@@H](CCC(=O)N[C@@H](CCC(=O)NCCCC[C@H](NC(=O)[C@H](CC(=O)O)NC(=O)[C@H](CO)NC(=O)[C@@H](NC(=O)[C@H](Cc1ccccc1)NC(=O)[C@@H](NC(=O)CNC(=O)[C@H](CCC(N)=O)NC(=O)[C@@H](CO)NC(=O)[C@@H](N)Cc1c[nH]cn1)[C@@H](C)O)[C@@H](C)O)C(=O)N[C@@H](CO)C(=O)N[C@@H](CCCCN)C(=O)N[C@@H](Cc1ccc(O)cc1)C(=O)N[C@@H](CC(C)C)C(=O)N[C@@H](CC(=O)O)C(=O)NC(C)(C)C(=O)N[C@@H](CCCNC(=N)N)C(=O)N[C@@H](CCCNC(=N)N)C(=O)N[C@@H](C)C(=O)N[C@@H](CCC(N)=O)C(=O)N[C@@H](CC(=O)O)C(=O)N[C@@H](Cc1ccccc1)C(=O)N[C@H](C(=O)N[C@@H](CCC(N)=O)C(=O)N[C@@H](Cc1c[nH]c2ccccc12)C(=O)N[C@@H](CC(C)C)C(=O)N[C@@H](CCSC)C(=O)N[C@@H](CC(N)=O)C(=O)N[C@H](C(=O)N[C@@H](CCCCN)C(=O)N[C@@H](CCC(N)=O)C(=O)O)[C@@H](C)O)C(C)C)C(=O)O)C(=O)O` [MM132], for which the response on hGCGR [1] was half-maximal at 0.004 nM (EC50).
Consider `CSCC[C@H](NC(=O)[C@H](CC(C)C)NC(=O)[C@H](Cc1c[nH]c2ccccc12)NC(=O)[C@H](CCC(N)=O)NC(=O)[C@@H](NC(=O)[C@H](Cc1ccccc1)NC(=O)[C@H](CC(=O)O)NC(=O)[C@H](CCC(N)=O)NC(=O)[C@H](C)NC(=O)[C@H](C)NC(=O)[C@H](CCC(=O)O)NC(=O)[C@H](CO)NC(=O)[C@H](CC(=O)O)NC(=O)[C@H](CC(C)C)NC(=O)[C@H](Cc1ccc(O)cc1)NC(=O)[C@H](CCCCN)NC(=O)[C@H](CO)NC(=O)[C@H](Cc1ccc(O)cc1)NC(=O)[C@H](CC(=O)O)NC(=O)[C@H](CO)NC(=O)[C@@H](NC(=O)[C@H](Cc1ccccc1)NC(=O)[C@@H](NC(=O)CNC(=O)[C@H](CCC(N)=O)NC(=O)[C@@H](CO)NC(=O)[C@@H](N)Cc1c[nH]cn1)[C@@H](C)O)[C@@H](C)O)C(C)C)C(=O)N[C@@H](CC(N)=O)C(=O)N[C@H](C(=O)N[C@@H](CCCCN)C(=O)N[C@@H](CSCC(=O)NCCOCCOCCOCCOCCC(=O)O[C@H]1CC[C@@]2(C)C(=CC[C@H]3[C@@H]4CC[C@H]([C@H](C)CCCC(C)C)[C@@]4(C)CC[C@@H]32)C1)C(N)=O)[C@@H](C)O` [OXM303] (H-H[dS]QGTFTSDYSKYLDSEAAQDFVQWLMNTKC(X3)-NH2; N-terminus assumed), for which, in series [2], the concentration giving a half-maximal response (EC50) was 100 nM.
On the same count and under the same terms, for `CCCCCCCCCCCCCCCC(=O)N[C@@H](CCC(=O)N[C@@H](CCC(=O)NCCCC[C@H](NC(=O)[C@H](C)NC(=O)[C@H](CCCNC(=N)N)NC(=O)[C@H](CCCNC(=N)N)NC(=O)[C@H](CO)NC(=O)[C@H](CC(=O)O)NC(=O)[C@H](CC(C)C)NC(=O)[C@H](Cc1ccc(O)cc1)NC(=O)[C@H](CCCCN)NC(=O)[C@H](CO)NC(=O)[C@H](Cc1ccc(O)cc1)NC(=O)[C@H](CC(=O)O)NC(=O)[C@H](CO)NC(=O)[C@@H](NC(=O)[C@H](Cc1ccccc1)NC(=O)[C@@H](NC(=O)CNC(=O)[C@H](CCC(N)=O)NC(=O)[C@@H](CO)NC(=O)[C@@H](N)Cc1c[nH]cn1)[C@@H](C)O)[C@@H](C)O)C(=O)N[C@@H](CC(=O)O)C(=O)N[C@@H](Cc1ccccc1)C(=O)N[C@H](C(=O)N[C@@H](CCC(N)=O)C(=O)N[C@@H](Cc1c[nH]c2ccccc12)C(=O)N[C@@H](CC(C)C)C(=O)N[C@@H](CCSC)C(=O)N[C@@H](CC(N)=O)C(=O)N[C@H](C(=O)N[C@@H](CCCCN)C(=O)N[C@@H](CCC(N)=O)C(=O)O)[C@@H](C)O)C(C)C)C(=O)O)C(=O)O` [OXM408] the value was greater than 10000 nM.
Take `CCCCCCCCCCCCCCCC(=O)N[C@@H](CCC(=O)N[C@@H](CCC(=O)NCCCC[C@H](NC(=O)[C@H](C)NC(=O)[C@H](CCCNC(=N)N)NC(=O)[C@H](CCCNC(=N)N)NC(=O)[C@H](CCC(=O)O)NC(=O)[C@H](CC(=O)O)NC(=O)[C@H](CC(C)C)NC(=O)[C@H](Cc1ccc(O)cc1)NC(=O)[C@H](CCCCN)NC(=O)[C@H](CO)NC(=O)[C@H](Cc1ccc(O)cc1)NC(=O)[C@H](CC(=O)O)NC(=O)[C@H](CO)NC(=O)[C@@H](NC(=O)[C@H](Cc1ccccc1)NC(=O)[C@@H](NC(=O)CNC(=O)[C@H](CCC(N)=O)NC(=O)[C@@H](CO)NC(=O)[C@@H](N)Cc1c[nH]cn1)[C@@H](C)O)[C@@H](C)O)C(=O)N[C@@H](CC(=O)O)C(=O)N[C@@H](Cc1ccccc1)C(=O)N[C@H](C(=O)N[C@@H](CCC(N)=O)C(=O)N[C@@H](Cc1c[nH]c2ccccc12)C(=O)N[C@@H](CC(C)C)C(=O)N[C@@H](CCSC)C(=O)N[C@@H](CC(N)=O)C(=O)N[C@H](C(=O)N[C@@H](CCCCN)C(N)=O)[C@@H](C)O)C(C)C)C(=O)O)C(=O)O` [OXM410] (H-H[dS]QGTFTSDYSKYLDERRAK([γGlu-γGlu-Palmitoyl])DFVQWLMNTK-NH2; N-terminus assumed): the concentration giving a half-maximal response (EC50) in series [2] was greater than 10000 nM.
Consider `CCCCCCCCCCCCCCCC(=O)N[C@@H](CCC(=O)N[C@@H](CCC(=O)NCCCC[C@H](NC(=O)[C@H](CC(=O)O)NC(=O)[C@H](CO)NC(=O)[C@@H](NC(=O)[C@H](Cc1ccccc1)NC(=O)[C@@H](NC(=O)CNC(=O)[C@H](CCC(N)=O)NC(=O)[C@@H](CO)NC(=O)[C@@H](N)Cc1c[nH]cn1)[C@@H](C)O)[C@@H](C)O)C(=O)N[C@@H](CO)C(=O)N[C@@H](CCCCN)C(=O)N[C@@H](Cc1ccc(O)cc1)C(=O)N[C@@H](CC(C)C)C(=O)N[C@@H](CC(=O)O)C(=O)N[C@@H](CCC(=O)O)C(=O)N[C@@H](CCCNC(=N)N)C(=O)N[C@@H](CCCNC(=N)N)C(=O)N[C@@H](C)C(=O)N[C@@H](CCC(N)=O)C(=O)N[C@@H](CC(=O)O)C(=O)N[C@@H](Cc1ccccc1)C(=O)N[C@H](C(=O)N[C@@H](CCC(N)=O)C(=O)N[C@@H](Cc1c[nH]c2ccccc12)C(=O)N[C@@H](CC(C)C)C(=O)N[C@@H](CCSC)C(=O)N[C@@H](CC(N)=O)C(=O)N[C@H](C(=O)N[C@@H](CCCCN)C(N)=O)[C@@H](C)O)C(C)C)C(=O)O)C(=O)O` [OXM411] (H-H[dS]QGTFTSDK([γGlu-γGlu-Palmitoyl])SKYLDERRAQDFVQWLMNTK-NH2; N-terminus assumed), for which, in series [2], the EC50 was greater than 10000 nM. The pI in series [3] was 5.4.
Consider `CCCCCCCCCCCCCCCC(=O)N[C@@H](CCC(=O)N[C@@H](CCC(=O)NCCCC[C@H](NC(=O)[C@H](CC(=O)O)NC(=O)[C@H](CO)NC(=O)[C@@H](NC(=O)[C@H](Cc1ccccc1)NC(=O)[C@@H](NC(=O)CNC(=O)[C@H](CCC(N)=O)NC(=O)[C@@H](CO)NC(=O)[C@@H](N)Cc1c[nH]cn1)[C@@H](C)O)[C@@H](C)O)C(=O)N[C@@H](CO)C(=O)N[C@@H](CCCCN)C(=O)N[C@@H](Cc1ccc(O)cc1)C(=O)N[C@@H](CC(C)C)C(=O)N[C@@H](CC(=O)O)C(=O)NC(C)(C)C(=O)N[C@@H](CCCNC(=N)N)C(=O)N[C@@H](CCCNC(=N)N)C(=O)N[C@@H](C)C(=O)N[C@@H](CCC(N)=O)C(=O)N[C@@H](CC(=O)O)C(=O)N[C@@H](Cc1ccccc1)C(=O)N[C@H](C(=O)N[C@@H](CCC(N)=O)C(=O)N[C@@H](Cc1c[nH]c2ccccc12)C(=O)N[C@@H](CC(C)C)C(=O)N[C@@H](CCSC)C(=O)N[C@@H](CC(N)=O)C(=O)N[C@H](C(=O)N[C@@H](CCCCN)C(=O)N[C@@H](CCC(N)=O)C(=O)O)[C@@H](C)O)C(C)C)C(=O)O)C(=O)O` [OXM418], for which the EC50 was 0.3 nM at hGCGR [4] and 0.026 nM on hGLP-1R. Also, the pI in series [3] is 5.5.
